# Experiments:
# in vivo [1] = conditions: rat
# [2] = Unbound fraction in human plasma; assay type: ADME, cell-free
# [3] = Oral bioavailability in human; assay type: ADME, organism-based; conditions: in vivo
# [4] = Clearance in rat urine; assay type: ADME, tissue-based
# [5] = Drug elimination in human urine; assay type: ADME, tissue-based; conditions: read-out: Drug excretion
# [6] = Total plasma clearance in human assessed as hepatic blood flow; assay type: ADME, cell-free
# [7] = Elimination half life in human
# [8] = Total plasma clearance in dog assessed as hepatic blood flow; assay type: ADME, cell-free, Canis lupus familiaris
# [9] = Intestinal clearance in rat; assay type: ADME; conditions: in vivo
# [10] = Tubular reabsorption in dog; assay type: ADME, Canis lupus familiaris
# [11] = Volume of distribution in human
# [12] = Drug excretion in BDC dog urine; assay type: ADME, tissue-based, Canis lupus familiaris
# in vivo [13] = conditions: rat, po
# [14] = Total plasma clearance in rat assessed as hepatic blood flow; assay type: ADME, cell-free
# [15] = Intestinal clearance in human; assay type: ADME
# [16] = Drug excretion in rat bile; assay type: ADME, tissue-based; conditions: read-out: Drug excretion
# [17] = Intestinal clearance in dog; assay type: ADME, Canis lupus familiaris; conditions: in vivo
# [18] = Renal clearance in dog; assay type: ADME, tissue-based, Canis lupus familiaris, Kidney; conditions: in vivo
# [19] = Renal excretion in rat; assay type: ADME, tissue-based, Kidney; conditions: in vivo, read-out: Drug excretion (converted)
# [20] = Total systemic clearance in rat; assay type: ADME; conditions: in vivo
# [21] = Intestinal excretion in iv dosed dog; assay type: ADME, organism-based, Canis lupus familiaris, Intestine; conditions: in vivo, read-out: Drug excretion
# [22] = Drug recovery in IV dosed BDC rat feces; assay type: ADME, organism-based; conditions: faeces, read-out: Drug recovery
# [23] = Intestinal excretion in iv dosed rat; assay type: ADME, organism-based, Intestine; conditions: in vivo, read-out: Drug excretion
# [24] = Total systemic clearance in dog; assay type: ADME, Canis lupus familiaris; conditions: in vivo
# [25] = Clearance in dog bile; assay type: ADME, tissue-based, Canis lupus familiaris; conditions: in vivo
smiles,measurement,setting,value
CCOc1ccc(Cc2cc([C@@H]3O[C@H](CO)[C@@H](O)[C@H](O)[C@H]3O)ccc2Cl)cc1 [DAPAGLIFLOZIN],CL renal,in vivo [1],0.08 mL/min/kg
same,fraction unbound,[2],0.085
COc1ccc(-n2nc(C(N)=O)c3c2C(=O)N(c2ccc(N4CCCCC4=O)cc2)CC3)cc1 [APIXABAN],bioavailability,[3],49%
same,CL renal,[4],11.8 mL/min/kg
same,dose excreted,[5],27%
same,QH,[6],< 5%
same,half-life,[7],12 h
same,QH,[8],< 5%
same,CL,[9],> 20%
same,Drug absorption,[10],0.483 mL/min/kg
same,Vd,[11],0.3 L/kg
same,dose excreted,[12],21%
same,Tmax,in vivo [13],2 h
same,QH,[14],< 5%
same,CL,[15],> 27%
same,dose excreted,[16],10%
same,CL,[17],> 42%
same,CL renal,[18],0.333 mL/min/kg
same,fraction unbound,[2],0.07
same,CL renal,[19],0.217 mL/min/kg
O=C1CN(/N=C/c2ccc([N+](=O)[O-])o2)C(=O)N1 [NITROFURANTOIN],fraction unbound,[2],0.4
COc1ccc(-n2nc(C(N)=O)c3c2C(=O)N(c2ccc(N4CCCC[14C]4=O)cc2)CC3)cc1,CL,[20],20%
same,dose excreted,[21],20%
same,dose excreted,[22],20%
same,dose excreted,[23],20%
CC(C)(O)[C@H](F)CN1Cc2cc(NC(=O)c3cnn4cccnc34)c(N3CCOCC3)cc2C1=O,Fu,[2],0.01
C[C@H]1O[C@@H](O[C@H]2[C@@H](O)C[C@H](O[C@H]3[C@@H](O)C[C@H](O[C@H]4CC[C@@]5(C)[C@H](CC[C@@H]6[C@@H]5C[C@@H](O)[C@]5(C)[C@@H](C7=CC(=O)OC7)CC[C@]65O)C4)O[C@@H]3C)O[C@@H]2C)C[C@H](O)[C@@H]1O [DIGOXIN],Fu,[2],0.2
CS(=O)(=O)c1ccc(C(=O)Nc2ccc(Cl)c(-c3ccccn3)c2)c(Cl)c1 [VISMODEGIB],CL,[24],19%
same,fraction unbound,[2],0.01
same,CL,[25],0.04 mL/min/kg

# Source: ChEMBL document CHEMBL5226306, “Intestinal Excretion, Intestinal Recirculation, and Renal Tubule Reabsorption Are Underappreciated Mechanisms That Drive the Distribution and Pharmacokinetic Behavior of Small Molecule Drugs” (J Med Chem, 2021)
